One experiment deals with pY180/pY511-ITK. Kind of experiment: Phosphoprotein screen in human whole blood with CBL inhibitor at 10 uM: ITK. The following applies: 1 hr 37° C., human whole blood 8 donors, anti-CD3/CD28 + crosslinker 60 minutes. Format: cell-based. As for the experimental part: To identify proximal biomarkers of CBL-B inhibition in immune cells, a panel of phosphorylated proteins were screened in human whole blood incubated with CBL-B inhibitor and concomitant anti-CD3 and anti-CD28 antibodies. The effect of CBL-B inhibition was assessed across multiple cellular signaling networks.
Human heparinized whole blood from 8 donors was received after an overnight shipment at 4° C. The blood was plated, treated with CBL inhibitor at 10 uM and incubated at 37° C. for 60 minutes. After incubation, the cells were stimulated with anti-CD3/CD28 followed by a cross-linking antibody (30 μg of goat anti-mouse IgG (H+L) antibody (Invitrogen)). After 60 minutes, the cells were fixed, and stained using surface markers for T cells (CD3^+CD4^+& CD3^+CD8^+) and analyzed by flow cytometry for target phosphorylation of the following markers: pY180/pY511-ITK, pY397-HS1, pY759-PLCg2, pY783-PLCg1, pY525/pY526/pY348-SYK & pY319-Zap70.
Fold change of each biomarker was calculated with the following example equation: […]
Whole blood from eight human donors was collected in sodium heparin anti-coagulant treated with 10 μM of Compound 23 for 1 hr at 37° C. […] Fold change of % phosphorylation normalized to DMSO was quantitated in T cells (CD8^+) using flow cytometry is provided in FIGS. 6A-6B.

A further experiment has as its system phosphorylated HS1. Kind of experiment: Phosphorylated HS1 in circulating CD8+ T cells after oral dosing of cynomolgus monkeys (flow cytometry, ex vivo anti-CD3/CD28 stimulation). As for the experimental part:
To assess these proximal biomarkers of Cbl-b inhibition on CD8^+ T cells, pharmacodynamic analysis was performed in conjunction with a pharmacokinetic study conducted at Charles River Laboratories. Circulating blood was obtained from cynomolgus monkeys treated with 0.3, 1, 3 or 10 mg/kg of Compound 23 after a single dose and after 3 doses. The response to Cbl-b inhibition on proximal biomarkers (pHS1, pPLCγ2, and pZAP70) was measured in CD8^+ T cells using flow cytometry. This technique is highly quantitative and can measure multiple phosphorylation markers in different cell populations within the same sample.
Compound 23 was formulated in vehicle (0.2% Tween 80 in DI water+1 eq HCL) and aliquoted into individual (not serially diluted) dosing solutions of 0.3, 1, 3 and 10 mg/mL by stirring for 5-10 min, vortexing, and sonicating again as necessary to produce an even suspension that was stirred constantly at 4° C. to achieve and maintain a homogenous suspension. To prepare vehicle, 0.2% Tween 80 in deionized (DI) water, water was measured into a beaker with continuous stirring. Tween 80 was added sequentially, and stirring continued until the solution dissolved; the solution was stored at 2-8° C.
For pharmacodynamic analysis, whole blood was obtained from cynomolgus monkeys and used for flow cytometry assays to evaluate phosphorylated biomarkers, pHS1, pPLCγ2, and pZAP70, in circulating CD8^+ T cells.
On the day of dosing, blood samples were collected via femoral venipuncture in accordance with test facility standard operating procedures. 1 mL/tube of whole blood was collected pre-dose (time 0) and at 0.5, 1, 2, 4, 6, and 24 hours post-dose and added into 2 types of TruCulture tubes (Myriad) for pharmacodynamic analysis. One tube contained media alone and is denoted as “Null”, and the second tube contained 2 μg/mL anti-CD3 and anti-CD28, which were prepared at Nurix prior to the study using cynomolgus specific anti-CD3 (BD Biosciences; SP34-2) and anti-CD28 (Bio X cell; CD28.2) and denoted as “CD3/CD28”. Tubes were shipped by overnight courier on cold pack the day of collection and analyzed for phosphorylated biomarkers of Cbl-b inhibition by flow cytometry.
Following PD collection, upon receipt of TruCulture tubes, each tube was inverted 5-6 times to ensure a mixed suspension of blood. 30 μg of goat anti-mouse IgG (H+L) antibody (Invitrogen) was added to cross-link the stimulation antibodies and induce synchronized cellular stimulation. Cells were stimulated for 60 minutes alongside non-stimulated controls for each time point.
All buffers (Phosflow Lyse/Fix Buffer 5×, Phosflow Perm Buffer I; BD Biosciences) were prepared according to the manufacturer's instructions. After 60 minutes of goat anti-mouse IgG (H+L) antibody stimulation, one volume of blood was mixed with 20 volumes of pre-warmed BD Phosflow Lyse/Fix Buffer (1×) by repeated pipetting (8-10 times), then incubated in a 37° C. water bath for 10 min. Cells were washed and centrifuged at 500×g for 5 min (2×) with PBS. Following centrifugation, cell pellets were resuspended in cold BD Phosflow Perm Buffer I (BD) and incubated at 4° C. for 20 min. […]

Molecules are shown by their SMILES.

Consider `C[C@H]1CCCN(Cc2cc3c(c(C(F)(F)F)c2)CN(c2cccc([C@]4(c5nncn5C)C[C@@H](C)C4)c2)C3=O)C1` [Compound 23], for which the “increased phosphorylation of ITK compared to DMSO control” value in the experiment on pY180/pY511-ITK is 3-4 fold. The “phosphorylated HS1 in comparison to baseline” value in the experiment with phosphorylated HS1 (multiple doses of 10 mg/kg, 3 days of daily oral dosing) was “significant increases”; with phosphorylated HS1 (single dose oral 10 mg/kg, circulating CD8+ T cells, anti-CD3/CD28 stimulated) it was “significant increases”. The “time of peak increase of phosphorylated HS1” value with phosphorylated HS1 (multiple doses of 10 mg/kg, 4 hours post dose) came to 76 h. Also, the “time of maximal signal, phosphorylated HS1” value with phosphorylated HS1 (single dose oral 10 mg/kg) was determined as 2 hours post dose. The “phosphorylated HS1 sustained after 24 hours” value with phosphorylated HS1 (single dose oral 10 mg/kg, after 24 hours) is listed as “significant increase”.

The values above are taken from patent publication US20230355599A1, “BIOMARKERS FOR CBL, AND COMPOSITIONS AND METHODS FOR THEIR USE” (NURIX THERAPEUTICS, INC., priority 2022, published 2023).
